One compound from patent US9061015B2, “Stable solid dispersion of a derivative of vinca alkaloid and process for manufacturing it” (PIERRE FABRE MEDICAMENT, priority 2004, dated 2015) can be followed below.

The nature of data set [1]: Physicochemical stability on storage at 25° C./60% RH: variation of the content of impurities compared with t0. The conditions noted are these: after 6 months 25° C./60% RH compared with t0. How it is done: Variation of the content of impurities (in % relative) after 6 months 25° C./60% RH compared with t0.
Other hydrophilic polymers such as polyethyleneglycols were tested.

The nature of data set [2]: Required storage temperature (stability). As to conditions: regardless of form (amorphous or crystalline) and degree of division. Type of data set: physicochemical.

Structures are written as SMILES.

With `CCC1=C[C@@H]2CN(C1)Cc1c([nH]c3ccccc13)[C@@](C(=O)OC)(c1cc3c(cc1OC)N(C)[C@H]1[C@@](O)(C(=O)OC)[C@H](OC(C)=O)[C@]4(CC)C=CCN5CC[C@]31[C@@H]54)C2` [Vinorelbine ditartrate, vinorelbine ditartrate], in data set [1], the “4-0-deacetylvinorelbine impurity, variation of the content” value is “+0.05 % relative”; the “6′-N-methylvinorelbine impurity, variation of the content” value was “+0.05 % relative”; the “6′-N-oxyvinorelbine impurity, variation of the content” value is recorded as “+0.37 % relative”; the “S/D6 impurity, variation of the content” value was “+1.02 % relative”. For the same compound, the “Total impurities, variation of the content” value in data set [1] is “+1.87 % relative”. Also, the “temperature at which it must be kept” value in data set [2] is “below −15 °C”.
